Experimental data published in patent publication US20240241099A1, “METHOD FOR IDENTIFYING PI3 KINASE-ALPHA INHIBITORS” (UNIVERSITÄT BASEL, priority 2021, published 2024).

Columns and labels:
[1] = test system: AktSer473 phosphorylation in SKOV3 ovarian cancer cells; experiment: Cellular washout study in SKOV3 cells, P-AktSer473 by immunoblot; assay type: cell-based; settings: 2.5 μM for 2 hours, then washout
Procedure: (§1) The experiments were performed in triplicate; CNX-1351 was used as positive control (irreversible inhibitor) and PQR514 as negative control (reversible inhibitor). (b) Metabolic stability of 19, 22 and CNX-1351 using rat liver microsomes. The time-dependent loss of test items (1 μM) with liver microsomes (0.5 mg microsomal protein/mL) and the percentages of test item remaining after 60 minutes of incubation were measured, (n=2).
The experiments were performed in triplicate; CNX-1351 was used as positive control (irreversible inhibitor) and PQR514 as negative control (reversible inhibitor).
(§2) The library of acrylamide-containing compounds was evaluated for PI3K signaling in SKOV3 ovarian cancer cells. […] Inhibition of AktSer473 phosphorylation measured by immunoblot analysis was used as an indicator of inhibition of PI3K signaling. Cells were incubated with the drugs (2.5 μM each) for 2 hours.
as §2, with “enone-containing” for “acrylamide-containing”

PI3Kα = PI3Kα (Homo sapiens, UniProt P42336); experiment: TR-FRET tracer displacement / time-dependent inhibition (IC50 shift) assay; assay type: binding
Procedure: The B-methyl substituted enone (2) and its corresponding moderately electrophilic derivative, β,β-dimethyl enone (3) were selected to explore the target space. A collection of compounds with pairwise matched linkers but either fast (2, 10-12) or moderate (3, 13-15) reacting Michael acceptors were synthesized (FIG. 3A). A time-dependent inhibition (IC50 shift) assay with five pre-incubation times was designed to identify covalent, time-dependent inhibitors. For compounds bearing a fast-reacting warhead (2, 10-12) a significant IC50 shift was observed also for compounds having their Michael acceptor at >4 Å from the cysteine thiol (FIG. 3E). […] The increased efficiency in covalent bond formation for 12 is due to the irreversible binding rather than an improvement in reversible affinity (see Ki values in FIG. 3D). […]
The library was tested for cellular potency on inhibition of PKB phorphorilation, considered as an indicator of inhibition of PI3K signaling. Time-resolved fluorescence resonance (TR-FRET) tracer displacement assay was used to determine the rate constant for irreversible inactivation (kinact) and the second order rate constant typically used to characterize the covalent binding of irreversible inhibitors to the target protein (kinact/Ki). […]

[2] = test system: PKB phosphorylation on Ser473 in SKOV3 cells; experiment: In-cell Western assay of PKB Ser473 phosphorylation in SKOV3 cells; assay type: cell-based; settings: n = 3, read-out: pPKB S473 IC50
[3] = Metabolic stability in rat liver microsomes; assay type: in vitro ADME; settings: rat liver microsomes 0.5 mg protein/mL, 1 μM, 60 minutes
Procedure: as §1
The metabolic stability of 19, 22 and CNX-1351 was evaluated in vitro in rat liver microsomes.

Chain of PI3Kα (P42336 whole entry): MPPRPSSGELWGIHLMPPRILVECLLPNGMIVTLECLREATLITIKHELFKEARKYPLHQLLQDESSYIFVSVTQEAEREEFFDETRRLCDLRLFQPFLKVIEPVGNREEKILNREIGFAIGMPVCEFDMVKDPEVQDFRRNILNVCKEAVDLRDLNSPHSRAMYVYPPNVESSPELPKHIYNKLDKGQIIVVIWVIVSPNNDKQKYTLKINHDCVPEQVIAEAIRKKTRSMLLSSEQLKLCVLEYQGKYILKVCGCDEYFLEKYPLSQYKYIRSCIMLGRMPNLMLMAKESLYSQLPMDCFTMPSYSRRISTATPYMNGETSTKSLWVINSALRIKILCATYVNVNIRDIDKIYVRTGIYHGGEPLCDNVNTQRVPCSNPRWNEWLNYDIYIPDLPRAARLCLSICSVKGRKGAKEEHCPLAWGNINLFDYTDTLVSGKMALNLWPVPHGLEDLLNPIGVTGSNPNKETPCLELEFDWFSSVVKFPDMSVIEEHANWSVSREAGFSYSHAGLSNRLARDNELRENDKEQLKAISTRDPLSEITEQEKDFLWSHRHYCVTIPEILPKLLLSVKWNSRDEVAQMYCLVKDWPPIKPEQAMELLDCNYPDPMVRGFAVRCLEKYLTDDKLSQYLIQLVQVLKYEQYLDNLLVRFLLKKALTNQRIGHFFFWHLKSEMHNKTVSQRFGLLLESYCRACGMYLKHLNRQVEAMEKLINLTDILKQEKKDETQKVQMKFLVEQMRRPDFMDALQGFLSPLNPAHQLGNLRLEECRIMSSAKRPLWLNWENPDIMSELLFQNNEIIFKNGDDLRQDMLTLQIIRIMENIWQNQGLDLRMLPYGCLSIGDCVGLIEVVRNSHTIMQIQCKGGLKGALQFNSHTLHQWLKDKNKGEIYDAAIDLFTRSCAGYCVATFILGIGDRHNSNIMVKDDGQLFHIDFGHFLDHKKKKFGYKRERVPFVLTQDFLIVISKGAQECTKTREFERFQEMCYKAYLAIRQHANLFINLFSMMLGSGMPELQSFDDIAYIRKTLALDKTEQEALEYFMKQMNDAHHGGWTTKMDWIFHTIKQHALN
Chain of PI3Kα (P27986 whole entry partner): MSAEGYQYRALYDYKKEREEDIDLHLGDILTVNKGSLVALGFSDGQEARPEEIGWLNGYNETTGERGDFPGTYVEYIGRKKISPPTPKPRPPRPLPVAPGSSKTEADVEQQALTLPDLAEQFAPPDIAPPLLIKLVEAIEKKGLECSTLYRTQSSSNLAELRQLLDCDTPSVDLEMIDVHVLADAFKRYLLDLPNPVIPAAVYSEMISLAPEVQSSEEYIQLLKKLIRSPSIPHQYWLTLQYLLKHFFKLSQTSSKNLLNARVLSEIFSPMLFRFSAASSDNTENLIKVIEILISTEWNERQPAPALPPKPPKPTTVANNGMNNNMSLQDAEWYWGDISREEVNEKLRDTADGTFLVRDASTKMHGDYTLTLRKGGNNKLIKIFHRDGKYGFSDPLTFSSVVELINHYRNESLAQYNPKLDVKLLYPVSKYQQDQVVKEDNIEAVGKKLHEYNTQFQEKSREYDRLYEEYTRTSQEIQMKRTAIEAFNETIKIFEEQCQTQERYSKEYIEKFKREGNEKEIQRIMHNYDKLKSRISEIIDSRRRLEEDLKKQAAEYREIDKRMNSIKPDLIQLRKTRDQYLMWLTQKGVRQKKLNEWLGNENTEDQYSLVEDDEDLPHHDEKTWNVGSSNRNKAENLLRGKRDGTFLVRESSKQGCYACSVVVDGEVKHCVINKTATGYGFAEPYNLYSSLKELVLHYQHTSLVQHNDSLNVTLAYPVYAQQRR

Row | Compound | P-AktSer473 signaling after drug washout [1] | kinact/Ki, [nM^−1s^−1] (PI3Kα; TR-FRET efficiency of covalent bond formation) | kinact, [s^−1] (PI3Kα; TR-FRET rate constant for irreversible inactivation) | IC50 [2] | metabolic stability [3]
1 | CC(C)=CC(=O)CCC(=O)N1CCN(Cc2cc3nc(-c4cccc5[nH]ncc45)nc(N4CCOCC4)c3s2)CC1 [CNX-1351] | prolonged inhibition | 1.73e-05 nM⁻¹ s⁻¹ | 0.000657 s⁻¹ | 290 nM | rapidly metabolized
2 | Nc1ncc(-c2nc(N3CCOCC3)nc(N3CCOCC3)n2)c(C(F)F)n1 [PQR514] | immediately recovered | – | – | – | –
